The source of these data is ChEMBL document CHEMBL3526034 (Drug Metab Dispos, 2013).

The target in one data set is T1, Cytochrome P450 2B6 (Homo sapiens, UniProt P20813).
T1 sequence (P20813 whole entry): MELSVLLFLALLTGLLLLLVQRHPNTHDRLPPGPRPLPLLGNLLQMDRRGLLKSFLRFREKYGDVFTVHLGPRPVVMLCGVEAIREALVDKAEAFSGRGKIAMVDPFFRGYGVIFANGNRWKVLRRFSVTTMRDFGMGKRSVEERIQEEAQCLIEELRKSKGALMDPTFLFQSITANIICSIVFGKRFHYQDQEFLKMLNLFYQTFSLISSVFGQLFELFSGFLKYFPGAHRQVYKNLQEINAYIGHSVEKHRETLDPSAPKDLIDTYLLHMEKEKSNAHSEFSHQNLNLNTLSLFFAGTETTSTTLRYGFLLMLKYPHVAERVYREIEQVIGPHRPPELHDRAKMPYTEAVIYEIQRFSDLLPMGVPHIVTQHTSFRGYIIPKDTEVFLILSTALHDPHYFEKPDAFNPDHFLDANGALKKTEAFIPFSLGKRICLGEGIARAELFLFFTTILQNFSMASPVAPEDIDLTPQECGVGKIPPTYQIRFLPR
Briefly: Inhibition of CYP2B6 in human liver microsomes using bupropion as substrate preincubated for 20 mins with substrate prior to initiation of reaction with NADPH by HPLC analysis. It counts as ADME.

Another data set concerns the target CYP2C9 (Homo sapiens, UniProt P11712). Briefly: Inhibition of CYP2C9 in human liver microsomes using diclofenac as substrate at 100 uM preincubated for 20 mins with substrate prior to initiation of reaction with NADPH by HPLC analysis. It counts as ADME. As to conditions: probe diclofenac. (In general: Liver microsomes are vesicles of endoplasmic reticulum, rich in cytochrome P450 enzymes.)

A further data set deals with Cytochrome P450 2C19 (Homo sapiens, UniProt P33261). Briefly: Inhibition of CYP2C19 in human liver microsomes using S-mephenytoin as substrate preincubated for 20 mins with substrate prior to initiation of reaction with NADPH by HPLC analysis. It counts as ADME.
The next data set deals with Cytochrome P450 2A6 (Homo sapiens, UniProt P11509). Briefly: Metabolism-dependent inhibition of CYP2A6 in human liver microsomes using coumarin as substrate preincubated for 20 mins with NADPH prior to initiation of reaction with probe substrate by HPLC analysis. It counts as ADME.
The target of data set [1] is UDP-glucuronosyltransferase 1A4 (Homo sapiens, UniProt P22310). Briefly: Drug metabolism assessed as UDPGA-fortified human recombinant UGT1A4-mediated DTG glucuronide metabolite ((2S,3S,4S,5R,6S)-6-((4R,12aS)-9-(2,4-difluorobenzylcarbamoyl)-4-methyl-6,8-dioxo-3,4,6,8,12,12a-hexahydro-2H-[1,3]oxazino[3,2-d]pyrido[1,2-a]pyrazin-7-yloxy)-3,4,5-trihydroxytetrahydro-2H-pyran-2-carboxylic acid) formation at 16 uM after 120 mins by radio-HPLC analysis. It counts as ADME. The following applies: recombinant enzyme.

For the next data set, the system named is Liver microsome. Briefly: Drug metabolism in UDPGA-fortified human liver microsomes assessed as DTG glucuronide metabolite ((2S,3S,4S,5R,6S)-6-((4R,12aS)-9-(2,4-difluorobenzylcarbamoyl)-4-methyl-6,8-dioxo-3,4,6,8,12,12a-hexahydro-2H-[1,3]oxazino[3,2-d]pyrido[1,2-a]pyrazin-7-yloxy)-3,4,5-trihydroxytetrahydro-2H-pyran-2-carboxylic acid) formation at 16 uM treated for 4 hrs by radio-HPLC analysis. It counts as ADME.

Another data set concerns the target Cytochrome P450 2D6 (Homo sapiens, UniProt P10635). Briefly: Metabolism-dependent inhibition of CYP2D6 in human liver microsomes using bufuralol as substrate preincubated for 20 mins with NADPH prior to initiation of reaction with probe substrate by HPLC analysis. It counts as ADME.
For data set [2], the target named is UDP-glucuronosyltransferase 2B15 (Homo sapiens, UniProt P54855). Briefly: Drug metabolism assessed as UDPGA-fortified human recombinant UGT2B15-mediated DTG glucuronide metabolite ((2S,3S,4S,5R,6S)-6-((4R,12aS)-9-(2,4-difluorobenzylcarbamoyl)-4-methyl-6,8-dioxo-3,4,6,8,12,12a-hexahydro-2H-[1,3]oxazino[3,2-d]pyrido[1,2-a]pyrazin-7-yloxy)-3,4,5-trihydroxytetrahydro-2H-pyran-2-carboxylic acid) formation at 16 uM after 120 mins by radio-HPLC analysis. The following applies: recombinant enzyme. It counts as ADME.

The target in data set [3] is UDP-glucuronosyltransferase 1A9 (Homo sapiens, UniProt O60656). Briefly: Drug metabolism assessed as UDPGA-fortified human recombinant UGT1A9-mediated DTG glucuronide metabolite ((2S,3S,4S,5R,6S)-6-((4R,12aS)-9-(2,4-difluorobenzylcarbamoyl)-4-methyl-6,8-dioxo-3,4,6,8,12,12a-hexahydro-2H-[1,3]oxazino[3,2-d]pyrido[1,2-a]pyrazin-7-yloxy)-3,4,5-trihydroxytetrahydro-2H-pyran-2-carboxylic acid) formation at 16 uM after 120 mins by radio-HPLC analysis. It counts as ADME. As to conditions: recombinant enzyme.

Data set [4] concerns the target T2, Broad substrate specificity ATP-binding cassette transporter ABCG2 (Homo sapiens, UniProt Q9UNQ0).
T2 sequence (Q9UNQ0 whole entry): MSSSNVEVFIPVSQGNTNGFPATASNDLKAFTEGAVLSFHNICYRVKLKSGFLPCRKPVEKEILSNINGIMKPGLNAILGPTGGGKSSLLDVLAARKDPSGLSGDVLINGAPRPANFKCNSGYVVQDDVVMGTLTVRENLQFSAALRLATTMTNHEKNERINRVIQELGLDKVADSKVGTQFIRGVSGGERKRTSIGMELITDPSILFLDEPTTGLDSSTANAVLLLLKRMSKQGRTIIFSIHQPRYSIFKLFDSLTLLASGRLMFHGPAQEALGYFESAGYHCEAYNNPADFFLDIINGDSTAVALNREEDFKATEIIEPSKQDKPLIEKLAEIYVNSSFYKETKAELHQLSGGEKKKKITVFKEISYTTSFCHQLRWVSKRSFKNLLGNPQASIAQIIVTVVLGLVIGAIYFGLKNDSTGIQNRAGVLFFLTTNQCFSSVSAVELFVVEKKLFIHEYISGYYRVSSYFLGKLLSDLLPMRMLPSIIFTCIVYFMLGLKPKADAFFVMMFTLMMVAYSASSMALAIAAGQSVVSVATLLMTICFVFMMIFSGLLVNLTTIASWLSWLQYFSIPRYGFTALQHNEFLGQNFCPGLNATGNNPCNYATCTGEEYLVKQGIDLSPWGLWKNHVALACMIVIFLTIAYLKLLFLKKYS
Briefly: Inhibition of BCRP (unknown origin) expressed in MDCK2 cells assessed as basolateral to apical transport of [14C]cimetidine after 90 mins by liquid scintillation counting analysis. It counts as ADME, cell-based, MDCK-II.

Data set [5] addresses T2, Broad substrate specificity ATP-binding cassette transporter ABCG2. Briefly: Inhibition of human BCRP. It counts as ADME.
In another data set the target is CYP2D6 (Homo sapiens, UniProt P10635). Briefly: Inhibition of CYP2D6 in human liver microsomes using bufuralol as substrate at 100 uM preincubated for 20 mins with substrate prior to initiation of reaction with NADPH by HPLC analysis. It counts as ADME. The following applies: probe bufuralol.
Data set [6] in a line: In vitro passive membrane permeability across dog MDCK2 cells at 3 uM using fasted state-simulated intestinal fluid buffer at pH 5.5 on donor side and 1% human serum albumin at pH 7.4 on receiver side by liquid scintillation counting analysis. It counts as ADME, cell-based, Canis lupus familiaris, MDCK-II. The following applies: MDCK, read-out: permeability.

SMILES strings stand for the structures.

Sequence of UDP-glucuronosyltransferase 1A9 (O60656 whole entry): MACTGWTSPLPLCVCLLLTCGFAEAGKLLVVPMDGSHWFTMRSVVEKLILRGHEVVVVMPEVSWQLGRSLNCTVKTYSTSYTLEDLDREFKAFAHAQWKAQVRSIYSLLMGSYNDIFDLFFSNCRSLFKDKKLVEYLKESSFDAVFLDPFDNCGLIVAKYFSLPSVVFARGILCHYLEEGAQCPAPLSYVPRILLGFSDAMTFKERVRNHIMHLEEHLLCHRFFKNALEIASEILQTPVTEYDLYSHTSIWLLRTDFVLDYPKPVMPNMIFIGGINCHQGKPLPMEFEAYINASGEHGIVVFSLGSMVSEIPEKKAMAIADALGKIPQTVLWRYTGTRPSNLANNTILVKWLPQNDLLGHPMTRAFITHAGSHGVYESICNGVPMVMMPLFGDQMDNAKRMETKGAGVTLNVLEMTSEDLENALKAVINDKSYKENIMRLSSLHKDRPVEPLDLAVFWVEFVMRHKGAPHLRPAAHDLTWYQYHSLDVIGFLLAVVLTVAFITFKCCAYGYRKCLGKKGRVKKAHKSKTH
Sequence of UDP-glucuronosyltransferase 2B15 (P54855 whole entry): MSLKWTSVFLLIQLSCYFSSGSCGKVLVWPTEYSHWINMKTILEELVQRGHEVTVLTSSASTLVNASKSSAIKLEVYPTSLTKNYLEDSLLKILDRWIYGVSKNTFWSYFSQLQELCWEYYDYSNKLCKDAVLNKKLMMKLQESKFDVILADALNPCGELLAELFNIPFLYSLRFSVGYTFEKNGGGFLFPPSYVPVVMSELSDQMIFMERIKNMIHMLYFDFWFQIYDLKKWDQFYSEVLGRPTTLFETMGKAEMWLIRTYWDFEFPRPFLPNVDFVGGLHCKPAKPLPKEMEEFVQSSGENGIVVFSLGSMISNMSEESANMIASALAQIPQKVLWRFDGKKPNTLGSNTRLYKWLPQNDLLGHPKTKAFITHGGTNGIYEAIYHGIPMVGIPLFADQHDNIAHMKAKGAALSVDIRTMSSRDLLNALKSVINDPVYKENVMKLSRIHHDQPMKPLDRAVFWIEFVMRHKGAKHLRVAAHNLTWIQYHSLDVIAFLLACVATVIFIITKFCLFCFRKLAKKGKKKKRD
Sequence of Cytochrome P450 2C19 (P33261 whole entry): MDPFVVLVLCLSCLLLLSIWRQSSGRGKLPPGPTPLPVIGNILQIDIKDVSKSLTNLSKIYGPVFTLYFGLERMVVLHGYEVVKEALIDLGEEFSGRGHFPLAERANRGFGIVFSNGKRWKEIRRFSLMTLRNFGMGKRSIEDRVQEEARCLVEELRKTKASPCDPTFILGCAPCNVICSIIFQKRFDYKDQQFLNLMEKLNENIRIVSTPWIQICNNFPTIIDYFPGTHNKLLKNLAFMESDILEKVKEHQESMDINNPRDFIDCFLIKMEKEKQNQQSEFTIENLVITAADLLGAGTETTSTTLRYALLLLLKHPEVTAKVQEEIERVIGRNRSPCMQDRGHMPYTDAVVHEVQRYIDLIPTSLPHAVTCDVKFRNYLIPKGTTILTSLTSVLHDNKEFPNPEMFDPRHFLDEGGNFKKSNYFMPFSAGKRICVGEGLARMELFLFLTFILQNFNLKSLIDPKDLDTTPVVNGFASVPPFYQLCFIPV
Sequence of Cytochrome P450 2D6 (P10635 whole entry): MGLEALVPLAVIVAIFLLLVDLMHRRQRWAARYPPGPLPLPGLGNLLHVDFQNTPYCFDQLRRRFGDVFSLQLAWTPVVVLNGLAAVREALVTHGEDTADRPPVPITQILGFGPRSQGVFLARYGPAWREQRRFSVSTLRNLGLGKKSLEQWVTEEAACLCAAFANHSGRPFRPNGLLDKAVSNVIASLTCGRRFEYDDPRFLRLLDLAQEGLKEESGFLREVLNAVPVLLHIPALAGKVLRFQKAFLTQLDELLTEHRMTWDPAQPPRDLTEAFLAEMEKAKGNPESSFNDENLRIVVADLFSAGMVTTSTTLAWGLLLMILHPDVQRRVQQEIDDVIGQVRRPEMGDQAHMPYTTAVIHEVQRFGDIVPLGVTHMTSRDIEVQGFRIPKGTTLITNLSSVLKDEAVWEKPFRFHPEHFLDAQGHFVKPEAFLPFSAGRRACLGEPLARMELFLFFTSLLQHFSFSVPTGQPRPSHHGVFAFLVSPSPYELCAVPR
Sequence of CYP2D6 (P10635 whole entry): as above
Sequence of UDP-glucuronosyltransferase 1A4 (P22310 whole entry): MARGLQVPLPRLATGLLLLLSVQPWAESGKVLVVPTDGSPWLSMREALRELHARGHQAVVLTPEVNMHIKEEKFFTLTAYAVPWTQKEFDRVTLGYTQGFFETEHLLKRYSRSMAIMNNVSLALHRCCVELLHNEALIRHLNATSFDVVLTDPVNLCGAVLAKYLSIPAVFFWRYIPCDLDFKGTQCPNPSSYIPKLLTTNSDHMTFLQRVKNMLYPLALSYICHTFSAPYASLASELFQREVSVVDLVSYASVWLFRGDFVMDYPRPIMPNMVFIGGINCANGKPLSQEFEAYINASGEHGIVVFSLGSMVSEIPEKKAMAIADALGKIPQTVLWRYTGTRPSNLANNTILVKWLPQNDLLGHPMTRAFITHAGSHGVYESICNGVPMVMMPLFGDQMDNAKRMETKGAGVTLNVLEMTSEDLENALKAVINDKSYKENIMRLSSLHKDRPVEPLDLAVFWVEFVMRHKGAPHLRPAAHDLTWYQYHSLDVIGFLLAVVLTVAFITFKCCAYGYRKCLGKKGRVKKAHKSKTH
Sequence of CYP2C9 (P11712 whole entry): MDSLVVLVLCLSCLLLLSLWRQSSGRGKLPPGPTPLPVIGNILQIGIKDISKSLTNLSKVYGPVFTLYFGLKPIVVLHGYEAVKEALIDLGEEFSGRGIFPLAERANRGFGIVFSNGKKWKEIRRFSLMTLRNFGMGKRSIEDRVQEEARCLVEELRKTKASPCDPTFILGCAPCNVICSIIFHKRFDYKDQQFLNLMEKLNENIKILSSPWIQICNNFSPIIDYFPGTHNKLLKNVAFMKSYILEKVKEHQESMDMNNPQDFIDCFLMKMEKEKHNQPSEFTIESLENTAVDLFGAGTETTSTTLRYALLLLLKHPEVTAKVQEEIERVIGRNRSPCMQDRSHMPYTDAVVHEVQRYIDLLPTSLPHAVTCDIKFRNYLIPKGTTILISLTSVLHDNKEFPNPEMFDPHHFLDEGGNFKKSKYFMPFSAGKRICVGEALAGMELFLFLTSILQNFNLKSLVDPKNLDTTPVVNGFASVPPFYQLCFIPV
Sequence of Cytochrome P450 2A6 (P11509 whole entry): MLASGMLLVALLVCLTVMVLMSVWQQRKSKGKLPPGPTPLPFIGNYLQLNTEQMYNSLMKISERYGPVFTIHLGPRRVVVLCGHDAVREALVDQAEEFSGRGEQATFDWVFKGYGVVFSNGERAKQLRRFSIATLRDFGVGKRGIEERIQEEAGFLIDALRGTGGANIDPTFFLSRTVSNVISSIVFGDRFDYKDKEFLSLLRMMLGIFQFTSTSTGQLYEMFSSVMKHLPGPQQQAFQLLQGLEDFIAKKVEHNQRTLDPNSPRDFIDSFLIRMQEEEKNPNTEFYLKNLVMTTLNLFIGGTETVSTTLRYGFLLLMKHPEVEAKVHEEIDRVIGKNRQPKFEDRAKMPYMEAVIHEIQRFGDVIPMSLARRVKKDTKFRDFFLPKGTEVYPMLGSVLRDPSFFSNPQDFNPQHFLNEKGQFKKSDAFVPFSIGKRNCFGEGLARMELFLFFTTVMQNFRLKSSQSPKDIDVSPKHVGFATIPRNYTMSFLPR

As usually defined, the IC50 is the concentration that gives 50% inhibition. What is called inhibition is how much of the control response was suppressed. High values mean a response far below the control, low ones a response near the control. `C[C@@H]1CCO[C@H]2Cn3cc(C(=O)NCc4ccc(F)cc4F)c(=O)c(O)c3C(=O)N12` [DOLUTEGRAVIR]: the IC50 at Cytochrome P450 2B6 was greater than 100 µM; at Cytochrome P450 2C19 it was greater than 100 µM; against Cytochrome P450 2A6 it was greater than 100 µM; against Cytochrome P450 2D6 it was greater than 100 µM; in [4] it was greater than 30 µM; in data set [5], 67 µM. In addition, the inhibition at 100 µM against CYP2C9 and against CYP2D6 was 20% throughout. The Drug metabolism result in data set [1] is recorded as “metabolite_not_detected”; in the data set on Liver microsome, “metabolite_detected”; in data set [2], “metabolite_not_detected”; in data set [3], “metabolite_detected”. Besides, in [6], the Papp at 3 µM is 26.5 ×10⁻⁶ cm/s.
